Test: Pharmacokinetic assessment of immunosuppressants (blood/plasma trough and AUC)
Assay type: in vivo, human
Settings: Non-EVR group, plasma, mean ± SD
Experimental: Sampling was performed at both 1-month and 1-year posttransplantation. The area under the blood (plasma) concentration–time curve (AUC) was then calculated from these serial measurements.

MPA AUC0–12 (at 1-month posttransplantation): 53500 ± 21000 ng·h/mL
MPA AUC0–12 (at 1-year posttransplantation): 51500 ± 20000 ng·h/mL
SMILES: COc1c(C)c2c(c(O)c1C/C=C(\C)CCC(=O)O)C(=O)OC2 [MPA, mycophenolic acid]
